Data reported in ChEMBL document CHEMBL5055643, “Sophoraflavanone G Resensitizes ABCG2-Overexpressing Multidrug-Resistant Non-Small-Cell Lung Cancer Cells to Chemotherapeutic Drugs” (J Nat Prod, 2021).

Tests used:
[1] = test system: NCI/ADR-RES; assay: Chemo-sensitizing activity against ABCB1-overexpressing human NCI/ADR-RES cells assessed as reversal fold at 5 uM measured after 72 hrs in presence of vincristine by CCK8 assay relative to control; type: functional
[2] = test system: HEK293; assay: Chemo-sensitizing activity against human HEK293 cells assessed as reversal fold at 2 uM measured after 72 hrs in presence of vincristine by CCK8 assay relative to control; type: functional
[3] = test system: NCI/ADR-RES; assay: Chemo-sensitizing activity against ABCB1-overexpressing human NCI/ADR-RES cells assessed as reversal fold at 2 uM measured after 72 hrs in presence of paclitaxel by CCK8 assay relative to control; type: functional
[4] = test system: KB 3-1; assay: Chemo-sensitizing activity against human KB 3-1 cells assessed as reversal fold at 2 uM measured after 72 hrs in presence of vincristine by CCK8 assay relative to control; type: functional
[5] = test system: ABCG2; assay: Resistance factor, ratio of IC50 for becatecarin-selected ABCG2-overexpressing human A549/Bec150 cells to IC50 for human A549 cells; type: ADME; settings: read-out: Ratio IC50
[6] = test system: OVCAR-8; assay: Chemo-sensitizing activity against human OVCAR-8 cells assessed as reversal fold at 2 uM measured after 72 hrs in presence of vincristine by CCK8 assay relative to control; type: functional
[7] = target: T1, Broad substrate specificity ATP-binding cassette transporter ABCG2 (Homo sapiens, UniProt Q9UNQ0); assay: Inhibition of ABCG2 in becatecarin-selected ABCG2-overexpressing human A549/Bec150 cells assessed as increase in intracellular mitoxantrone accumulation incubated for 1 hr in presence of mitoxantrone by flow cytometry; type: cell-based
T1 sequence (Q9UNQ0 whole entry): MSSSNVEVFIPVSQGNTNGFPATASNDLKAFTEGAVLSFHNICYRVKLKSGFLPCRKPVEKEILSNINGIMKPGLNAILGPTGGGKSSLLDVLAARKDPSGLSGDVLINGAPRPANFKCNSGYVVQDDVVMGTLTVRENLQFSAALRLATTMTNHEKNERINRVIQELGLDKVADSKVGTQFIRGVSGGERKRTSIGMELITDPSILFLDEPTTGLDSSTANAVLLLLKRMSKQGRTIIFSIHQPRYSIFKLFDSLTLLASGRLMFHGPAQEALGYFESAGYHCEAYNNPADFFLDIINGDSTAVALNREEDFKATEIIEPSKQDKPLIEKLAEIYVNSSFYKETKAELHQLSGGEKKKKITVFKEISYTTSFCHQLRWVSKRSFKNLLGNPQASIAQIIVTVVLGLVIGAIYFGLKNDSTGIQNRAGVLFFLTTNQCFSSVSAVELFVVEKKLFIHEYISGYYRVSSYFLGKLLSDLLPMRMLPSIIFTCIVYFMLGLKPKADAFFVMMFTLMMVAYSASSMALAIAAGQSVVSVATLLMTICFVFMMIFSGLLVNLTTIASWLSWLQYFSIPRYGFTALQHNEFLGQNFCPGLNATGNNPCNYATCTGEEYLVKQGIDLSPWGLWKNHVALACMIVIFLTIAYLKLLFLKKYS

[8] = test system: KB-V1; assay: Chemo-sensitizing activity against ABCB1-overexpressing human KB-V1 cells assessed as reversal fold at 2 uM measured after 72 hrs in presence of vincristine by CCK8 assay relative to control; type: functional
[9] = test system: NCI-H460; assay: Chemo-sensitizing activity against human NCI-H460 cells assessed as reversal fold at 5 uM measured after 72 hrs in presence of topotecan by CCK8 assay relative to control; type: functional
[10] = test system: NCI-H460; assay: Chemo-sensitizing activity against human NCI-H460 cells assessed as reversal fold at 1 uM measured after 72 hrs in presence of mitoxantrone by CCK8 assay relative to control; type: functional
[11] = test system: HEK293; assay: Chemo-sensitizing activity against human HEK293 cells assessed as reversal fold at 5 uM measured after 72 hrs in presence of topotecan by CCK8 assay relative to control; type: functional
[12] = test system: NCI-H460; assay: Chemo-sensitizing activity against human NCI-H460 cells assessed as reversal fold at 2 uM measured after 72 hrs in presence of SN-38 by CCK8 assay relative to control; type: functional
[13] = test system: A549; assay: Chemo-sensitizing activity against human A549 cells assessed as reversal fold at 2 uM measured after 72 hrs in presence of mitoxantrone by CCK8 assay relative to control; type: functional
[14] = test system: NCI/ADR-RES; assay: Chemo-sensitizing activity against ABCB1-overexpressing human NCI/ADR-RES cells assessed as reversal fold at 5 uM measured after 72 hrs in presence of colchicine by CCK8 assay relative to control; type: functional
[15] = test system: NCI-H460; assay: Chemo-sensitizing activity against human NCI-H460 cells assessed as reversal fold at 2 uM measured after 72 hrs in presence of topotecan by CCK8 assay relative to control; type: functional
[16] = test system: HEK293; assay: Chemo-sensitizing activity against ABCB1-overexpressing human HEK293/MDR19 cells assessed as reversal fold at 2 uM measured after 72 hrs in presence of vincristine by CCK8 assay relative to control; type: functional
[17] = test system: NCI-H460; assay: Chemo-sensitizing activity against mitoxantrone-selected ABCG2-overexpressing human NCI-H460/MX20 cells assessed as reversal fold at 1 uM measured after 72 hrs in presence of topotecan by CCK8 assay relative to control; type: functional
[18] = test system: NCI/ADR-RES; assay: Chemo-sensitizing activity against ABCB1-overexpressing human NCI/ADR-RES cells assessed as reversal fold at 2 uM measured after 72 hrs in presence of vincristine by CCK8 assay relative to control; type: functional
[19] = test system: NCI-H460; assay: Chemo-sensitizing activity against mitoxantrone-selected ABCG2-overexpressing human NCI-H460/MX20 cells assessed as reversal fold at 5 uM measured after 72 hrs in presence of mitoxantrone by CCK8 assay relative to control; type: functional
[20] = test system: KB-V1; assay: Chemo-sensitizing activity against ABCB1-overexpressing human KB-V1 cells assessed as reversal fold at 2 uM measured after 72 hrs in presence of paclitaxel by CCK8 assay relative to control; type: functional
[21] = test system: HEK293; assay: Chemo-sensitizing activity against human HEK293 cells assessed as reversal fold at 2 uM measured after 72 hrs in presence of topotecan by CCK8 assay relative to control; type: functional
[22] = test system: KB 3-1; assay: Chemo-sensitizing activity against human KB 3-1 cells assessed as reversal fold at 5 uM measured after 72 hrs in presence of vincristine by CCK8 assay relative to control; type: functional
[23] = Cytotoxicity against human NCI-H460 cells assessed as cell viability at 1 to 5 uM measured after 72 hrs by CCK8 assay; type: cell-based; settings: dose 1-5 µM, read-out: Activity
[24] = test system: NCI/ADR-RES; assay: Chemo-sensitizing activity against ABCB1-overexpressing human NCI/ADR-RES cells assessed as reversal fold at 1 uM measured after 72 hrs in presence of colchicine by CCK8 assay relative to control; type: functional
[25] = test system: A549; assay: Chemo-sensitizing activity against becatecarin-selected ABCG2-overexpressing human A549/Bec150 cells assessed as reversal fold at 2 uM measured after 72 hrs in presence of topotecan by CCK8 assay relative to control; type: functional
[26] = test system: OVCAR-8; assay: Chemo-sensitizing activity against human OVCAR-8 cells assessed as reversal fold at 2 uM measured after 72 hrs in presence of colchicine by CCK8 assay relative to control; type: functional
[27] = test system: A549; assay: Chemo-sensitizing activity against becatecarin-selected ABCG2-overexpressing human A549/Bec150 cells assessed as reversal fold at 5 uM measured after 72 hrs in presence of mitoxantrone by CCK8 assay relative to control; type: functional

In the case of `C=C(C)[C@H](CC=C(C)C)Cc1c(O)cc(O)c2c1O[C@H](c1ccc(O)cc1O)CC2=O` [SOPHORAFLAVANONE G], the “fold change (FC)” value [1] is reported as 1.1, the “fold change (FC)” value [2] is reported as 0.6 and the “fold change (FC)” value [3] is reported as 1.1. For the same compound, the “fold change (FC)” value [4] was 1.2, the selectivity ratio [5] was 0.8 and the “fold change (FC)” value [6] was 1. For the same compound, the IC50 [7] was 2.29 µM, the “inhibition (INH)” value ([7]; human, a549, 1 h, time 1 hrs) was “Dose-dependent effect” and the “fold change (FC)” value [8] was 1.1. For the same compound, the “fold change (FC)” value [9] was 3, the “fold change (FC)” value [10] was 2.3 and the “fold change (FC)” value [11] was 0.8. The “fold change (FC)” value [12] was 1.7, the “fold change (FC)” value [13] was 1.6 and the “fold change (FC)” value [14] was 0.7. For the same compound, the “fold change (FC)” value [15] was 2.1, the “fold change (FC)” value [16] was 0.9 and the “fold change (FC)” value [17] was 4.1. The “fold change (FC)” value [18] was 1, the “fold change (FC)” value [19] was 7.6 and the “fold change (FC)” value [20] was 1.2. The “fold change (FC)” value [21] was 0.9, the “fold change (FC)” value [22] was 1.7 and the viability at 72 h, 5 µM [23] was greater than 90%. The “fold change (FC)” value [24] was 0.9, the “fold change (FC)” value [25] was 1.8 and the “fold change (FC)” value [26] was 1. The “fold change (FC)” value [27] was 9.1.
